Here are results for one compound from US8623851B2 (Mylan Specialty L.P., priority 2001, dated 2014).

Data set [1] in a line: Decomposition kinetics (stability) of formoterol in aqueous solution. It counts as physicochemical. The source says:
In the embodiments herein, the compositions have a pH of about 2.0 to about 8.0. The particular pH of a given composition for long term storage provided herein may be determined empirically using standard stability assays well known to those of skill in the art (see, e.g., the Examples). […] In certain of the above embodiments, the compositions are formulated at a pH of about 4, 4.4 or 4.6 up to about 5.5, 5.7 or 6. In other embodiments, the pH is about 5.0.
In other of the above embodiments, the compositions further contain a buffer, including, but not limited to, citric acid/phosphate, acetate, barbital, borate, Britton-Robinson, cacodylate, citrate, collidine, formate, maleate, Mcilvaine, phosphate, Prideaux-Ward, succinate, citrate-phosphate-borate (Teorell-Stanhagen), veronal acetate, MES (2-(N-morpholino)ethanesulfonic acid), BIS-TRIS (bis(2-hydroxyethyl)imino-tris-(hydroxymethyl)methane), ADA (N-(2-acetamido)-2-iminodiacetic acid), ACES (N-(carbamoylmethyl)-2-aminoethanesulfonaic acid), PIPES (piperazine-N,N′-bis(2-ethanesulfonic acid)), MOPSO (3-(N-morpholino)-2-hydroxypropanesulfonic acid), BIS-TRIS PROPANE (1,3-bis(tris(hydroxy-methyl)methylamino)propane), BES (N,N-bis(2-hydroxyethyl)-2-amino-ethanesulfonaic acid), MOPS (3-(N-morpholino)propanesulfonic acid), TES (N-tris(hydroxymethyl)methyl-2-aminoethanesulfonic acid), HEPES (N-(2-hydroxyethyl)piperazine-N′-(2-eth-anesulfonic acid), DIPSO (3-(N,N-bis(2-hydroxyethyl)amino)-2-hydroxypropan-esulfonicacid), MOBS (4-(N-morpholino)butanesulfonic acid), TAPSO (3-(N-tris(hydroxymethyl)methyl-amino)-2-hydroxypropanesulfonic acid), TRIZMA® (tris(hydroxymethyl-aminomethane), HEPPSO(N-(2-hydroxyethyl)piperazine-N′-(2-hydroxy-propanesulfonic acid), POPSO (piperazine-N,N′-bis(2-hydroxypropane-sulfonic acid)), TEA (triethanolamine), EPPS (N-(2-hydroxyethyl)-piperazine-N′-(3-propanesulfonic acid), TRICINE (N-tris(hydroxy-methyl)methylglycine), GLY-GLY (glycylglycine), BICINE (N,N-bis(2-hydroxyethyl)glycine), HEPBS (N-(2-hydroxyethyl)piperazine-N′-(4-butanesulfonic acid)), TAPS(N-tris(hydroxymethyl)methyl-3-amino-propanesulfonic acid), AMPD (2-amino-2-methyl-1,3-propanediol), and/or any other buffers known to those of skill in the art. In one embodiment, the buffer is citric acid/phosphate buffer, acetate buffer, citrate buffer or phosphate buffer. In another embodiment, the buffer is a citrate buffer (citric acid/sodium citrate). […] Buffer concentrations for use herein include from about 0 or 0.01 mM to about 150 mM, or about 1 mM to about 20 mM. In one embodiment, the buffer concentration is about 5 mM. In another embodiment, the buffer concentration is about 1 mM to about 50 mM, or about 20 mM. […] The particular buffer and buffer concentration of a given composition for long term storage provided herein may be determined empirically using standard stability assays well known to those of skill in the art (see, e.g., the Examples).
Ionic strengths of the compositions provided herein are from about 0 to about 0.4, or from about 0.05 to about 0.16. […] The particular ionic strength of a given composition for long term storage provided herein may be determined empirically using standard stability assays well known to those of skill in the art (see, e.g., the Examples).

The nature of data set [2]: Estimated shelf-life of formoterol in the compositions (Arrhenius kinetics). It counts as physicochemical.
The test system of data set [3] is patients with reversible obstructive respiratory diseases. The following applies: cited from earlier work.

SMILES strings stand for the structures. Like-named read-outs stand apart in the source and are kept apart here.

As to `COc1ccc(CC(C)NCC(O)c2ccc(O)c(NC=O)c2)cc1` (racemic) [formoterol, 2-hydroxy-5-((1RS)-1-hydroxy-2-(((1RS)-2-(p-methoxyphenyl)-1-methylethyl)amino)ethyl)formanilide], the “pH at which decomposition is slowest” value in data set [1] (aqueous solution, 60° C., buffer concentration 5 mM, ionic strength 0.05) is “about 5.0”. Also, the “rate constant (kobs) for decomposition” value in data set [1] (aqueous solution, 60° C., pH 3, buffer concentration 5 mM, ionic strength 0.05) is “approximately 0.62 day^−1”; in data set [1] (aqueous solution, 60° C., pH 4, buffer concentration 5 mM, ionic strength 0.05) it was around 0.11 day⁻¹; in data set [1] (aqueous solution, 60° C., pH 5, buffer concentration 5 mM, ionic strength 0.05), around 0.044 day⁻¹; in data set [1] (aqueous solution, 60° C., pH 7, buffer concentration 5 mM, ionic strength 0.05), around 0.55 day⁻¹. Also, the “effect of buffer concentration on rate constant of decomposition” value in data set [1] (low and approximately neutral pH conditions, buffer concentration 5 mM to 20 mM) is given as “increased the rate constant of decomposition significantly”; in data set [1] (pH region of about 4.5 to about 5.5, buffer concentration 5 mM to 20 mM) it was “no noticeable differences in rate constant were observed”. Besides, the estimated shelf-life result in data set [2] (5° C.) is “about 6.2 years”; in data set [2] (25° C.) it was “about 7.5 months”. Further, the aqueous solubility result (pH between about 5 and about 7, ambient temperature) is reported as “approximately 2.2 mg/mL”; the aqueous solubility result (pH of about 3, ambient temperature) is listed as “about 4.8 mg/mL”; the aqueous solubility entry (pH of about 4, ambient temperature) is recorded as “approximately 3 mg/mL”. The “solubility in pure water” value (pure water (HPLC water), ambient temperature) is reported as “approximately 2 mg/mL”. In addition, the “duration of bronchodilatory effect” value in data set [3] is “greater than 12 hours”. For the same compound, the “onset of bronchodilatory effect” value in data set [3] is 1 to 3 min.
